In ChEMBL document CHEMBL4842342, “Amidoxime prodrugs convert to potent cell-active multimodal inhibitors of the dengue virus protease” (Eur J Med Chem, 2021):
Calls of active or inactive are those of the source. The calls are words filed in the database; no cut-off is given here.

Columns and labels:
[1] = test system: dengue virus type 2; assay: Antiviral activity against Dengue virus 2 measured at 48 hrs post-infection; assay type: functional, organism-based
[2] = biological target: T1, Genome polyprotein (dengue virus type 2, UniProt P29990); assay: Inhibition of DENV2 NS2B-NS3 protease
[3] = Cytotoxicity against human Huh-7 cells assessed as reduction in cell viability; assay type: cell-based
[4] = test system: dengue virus type 2; assay: Antiviral activity against DENV2; assay type: functional, organism-based
[5] = test system: dengue virus type 3; assay: Antiviral activity against DENV3; assay type: functional, organism-based
[6] = test system: dengue virus type 2; assay: Antiviral activity against Dengue virus 2 EDEN2 infected in human Huh-7 cells; assay type: functional, organism-based; details: EDEN2, Huh-7
[7] = test system: dengue virus type 4; assay: Antiviral activity against DENV4; assay type: functional, organism-based
[8] = test system: dengue virus type 2; assay: Antiviral activity against DENV2 infected in human Huh-7 cells assessed as log reduction in extracellular viral RNA synthesis at 10 uM treated at 6 hrs post-viral infection and measured after 48 hrs by real time RT-PCR method; assay type: functional
[9] = biological target: Genome polyprotein (dengue virus type 2) (UniProt P29990); assay: Inhibition of NS2B-NS3 protease in DENV2 infected in human Huh-7 cells assessed as inhibition of NS3 internal cleavage site at 10 uM treated 6 hrs […] viral infection and measured at 30 hrs post-infection by western blot analysis; assay type: cell-based; details: time 24.0 hrs
[10] = biological target: T1, Genome polyprotein; assay: Inhibition of NS2B-NS3 protease in DENV2 EDEN2 infected in human Huh-7 cells; assay type: cell-based
[11] = test system: dengue virus type 1; assay: Antiviral activity against DENV1; assay type: functional, organism-based
[12] = test system: dengue virus type 2; assay: Antiviral activity against DENV2 infected in human Huh-7 cells assessed as log reduction in intracellular viral RNA synthesis at 10 uM treated at 6 hrs post-viral infection and measured after 12 hrs by real time RT-PCR method; assay type: functional
[13] = test system: dengue virus type 2; assay: Antiviral activity against DENV2 infected in human Huh-7 cells assessed as viral infection rate at 10 uM treated at 6 hrs post-viral infection and measured at 30 hrs post-infection by confocal microscopy (reference value: 50 to 60%); assay type: functional; details: time 24 hrs
[14] = test system: dengue virus type 2; assay: Antiviral activity against DENV2 infected in human Huh-7 cells assessed as reduction in intracellular viral RNA synthesis at 10 uM treated at 6 hrs post-viral infection and measured after 48 hrs by real time RT-PCR method; assay type: functional, organism-based
[15] = Cytotoxicity against human PBMC assessed as reduction in cell viability
[16] = test system: dengue virus type 2; assay: Antiviral activity against DENV2 infected in human Huh-7 cells assessed as log reduction in intracellular viral RNA synthesis at 10 uM treated at 6 hrs post-viral infection and measured after 38 hrs by real time RT-PCR method; assay type: functional
[17] = test system: dengue virus type 2; assay: Antiviral activity against DENV2 D2Y10 virus infected in human PBMC cells in presence of 4G2 antibody; assay type: functional, organism-based
[18] = biological target: T1, Genome polyprotein; assay: Inhibition of DENV2 NS2B-NS3 protease assessed as inhibition of protease intermolecular processing
[19] = Cytotoxicity against monkey LLC-MK2 cells assessed as reduction in cell viability by MTT assay; assay type: cell-based, Macaca mulatta; details: rhesus monkey
[20] = Dengue virus, 48 h, read-out: EC50

N/C(=N\O)c1cccc(-c2ccc3c(c2)c2cc(-c4cccc(/C(N)=N/O)c4)ccc2n3S(=O)(=O)c2cccc(Br)c2)c1
EC50 [1, 20]: 2.4 µM

N/C(=N\O)c1cccc(-c2ccc3c(c2)c2cc(-c4cccc(/C(N)=N/O)c4)ccc2n3CCCCOc2ccc3ccc(=O)[nH]c3c2)c1
EC50 [1, 20]: 8.9 µM

COc1ccc(S(=O)(=O)n2c3ccc(-c4cccc(/C(N)=N/O)c4)cc3c3cc(-c4cccc(/C(N)=N/O)c4)ccc32)cc1F
EC50 [1, 20]: 2.7 µM

N/C(=N\O)c1cccc(-c2ccc3c(c2)c2cc(-c4cccc(/C(N)=N/O)c4)ccc2n3CC(O)COc2ccccn2)c1 (stereo unspecified)
EC50 [1, 20]: 33.9 µM

N=C(N)c1cccc(-c2ccc3c(c2)c2cc(-c4cccc(C(=N)N)c4)ccc2n3S(=O)(=O)c2cccc(C(F)(F)F)c2)c1
EC50 [1, 20]: 7.3 µM | IC50 ([2]; read-out: IC50): 2.9 µM

COc1ccc(S(=O)(=O)n2c3ccc(-c4cccc(/C(N)=N/O)c4)cc3c3cc(-c4cccc(/C(N)=N/O)c4)ccc32)cc1OC
EC50 [1, 20]: 5.7 µM

N/C(=N\O)c1cccc(-c2ccc3c(c2)c2cc(-c4cccc(/C(N)=N/O)c4)ccc2n3S(=O)(=O)c2cccc(OC(F)(F)F)c2)c1
EC50 [1, 20]: 7.7 µM | IC50 [2]: Not Active

COc1cccc(Cn2c3ccc(-c4cccc(-c5noc(=O)[nH]5)c4)cc3c3cc(-c4cccc(-c5noc(=O)[nH]5)c4)ccc32)c1
EC50 [1, 20]: 14.5 µM | IC50 ([2]; read-out: IC50): 121 µM

COc1cccc(Cn2c3ccc(-c4cccc(C(=N)N)c4)cc3c3cc(-c4cccc(C(=N)N)c4)ccc32)c1
EC50 [1, 20]: 6.6 µM | IC50 ([2]; read-out: IC50): 2.71 µM

COc1ccc(S(=O)(=O)n2c3ccc(-c4cccc(/C(N)=N/O)c4)cc3c3cc(-c4cccc(/C(N)=N/O)c4)ccc32)cc1
EC50 [1, 20]: 9.6 µM | IC50 [2]: Not Active

N/C(=N\O)c1cccc(-c2ccc3c(c2)c2cc(-c4cccc(/C(N)=N/O)c4)ccc2n3Cc2cccc(Br)c2)c1
CC50 [3]: > 100 µM | EC50 [4]: 1.4 µM | EC50 [5]: 5.1 µM | EC50 [6]: 1.1 µM | EC50 [7]: 1.7 µM | log(activity) [8]: 3 | inhibition [9]: Active | IC50 [10]: 18 µM | EC50 [11]: 5.9 µM | EC50 [1, 20]: 1.1 µM | log(activity) [12]: 2 | Activity [13]: 10% | Activity [14]: inactive | CC50 [15]: > 100 µM | log(activity) [16]: 2 | EC50 [17]: 1.66 µM

O=C1c2c(O)ccc([N+](=O)[O-])c2C(=O)c2c([N+](=O)[O-])ccc(O)c21
IC50 [18]: 432 µM | CC50 [19]: 69.4 µM

N/C(=N\O)c1cccc(-c2ccc3c(c2)c2cc(-c4cccc(/C(N)=N/O)c4)ccc2n3S(=O)(=O)c2cc(F)cc(Br)c2)c1
EC50 [1, 20]: 17.3 µM

N/C(=N\O)c1cccc(-c2ccc3c(c2)c2cc(-c4cccc(/C(N)=N/O)c4)ccc2n3S(=O)(=O)c2cccc(C(F)(F)F)c2)c1
EC50 [1, 20]: 5 µM | IC50 [2]: Not Active

N/C(=N\O)c1cccc(-c2ccc3c(c2)c2cc(-c4cccc(/C(N)=N/O)c4)ccc2n3S(=O)(=O)c2ccccc2C(F)(F)F)c1
EC50 [1, 20]: 5.3 µM

N/C(=N\O)c1cccc(-c2ccc3c(c2)c2cc(-c4cccc(/C(N)=N/O)c4)ccc2n3S(=O)(=O)c2ccccc2Br)c1
EC50 [1, 20]: 7.6 µM | IC50 [2]: Not Active

N/C(=N\O)c1cccc(-c2ccc3c(c2)c2cc(-c4cccc(/C(N)=N/O)c4)ccc2n3S(=O)(=O)c2ccc(Br)c(F)c2)c1
EC50 [1, 20]: 7.8 µM

N=C(N)c1cccc(-c2ccc3c(c2)c2cc(-c4cccc(C(=N)N)c4)ccc2n3S(=O)(=O)c2cccc(OC(F)(F)F)c2)c1
EC50 [1, 20]: 8.1 µM | IC50 ([2]; read-out: IC50): 3.1 µM

N/C(=N\O)c1cccc(-c2ccc3c(c2)c2cc(-c4cccc(/C(N)=N/O)c4)ccc2n3S(=O)(=O)c2cccc(Cl)c2)c1
EC50 [1, 20]: 7.6 µM

N=C(N)c1cccc(-c2ccc3c(c2)c2cc(-c4cccc(C(=N)N)c4)ccc2n3S(=O)(=O)c2ccccc2Br)c1
EC50 [1, 20]: 6.9 µM | IC50 ([2]; read-out: IC50): 8.8 µM

N/C(=N\O)c1cccc(-c2ccc3c(c2)c2cc(-c4cccc(/C(N)=N/O)c4)ccc2n3S(=O)(=O)c2ccccc2OC(F)(F)F)c1
EC50 [1, 20]: 1.9 µM | IC50 [2]: Not Active

Cn1c2ccc(-c3cccc(/C(N)=N/O)c3)cc2c2cc(-c3cccc(/C(N)=N/O)c3)ccc21
EC50 [1]: Not Active

N/C(=N\O)c1cccc(-c2ccc3c(c2)c2cc(-c4cccc(/C(N)=N/O)c4)ccc2n3S(=O)(=O)c2ccccc2Cl)c1
EC50 [1, 20]: 2.7 µM

N=C(N)c1cccc(-c2ccc3c(c2)c2cc(-c4cccc(C(=N)N)c4)ccc2n3S(=O)(=O)c2ccccc2OC(F)(F)F)c1
EC50 [1, 20]: 5.6 µM | IC50 ([2]; read-out: IC50): 9.8 µM
